Here are results for 48 compounds from patent US7034056B2, “Aryl and biaryl compounds having MCH modulatory activity” (Pharmacopeia Drug Discovery, inc., priority 2001, dated 2006).

A word on the Ki: it is the dissociation constant of the complex between target and ligand, obtained from inhibition or displacement.

T1 sequence (Q99705 whole entry): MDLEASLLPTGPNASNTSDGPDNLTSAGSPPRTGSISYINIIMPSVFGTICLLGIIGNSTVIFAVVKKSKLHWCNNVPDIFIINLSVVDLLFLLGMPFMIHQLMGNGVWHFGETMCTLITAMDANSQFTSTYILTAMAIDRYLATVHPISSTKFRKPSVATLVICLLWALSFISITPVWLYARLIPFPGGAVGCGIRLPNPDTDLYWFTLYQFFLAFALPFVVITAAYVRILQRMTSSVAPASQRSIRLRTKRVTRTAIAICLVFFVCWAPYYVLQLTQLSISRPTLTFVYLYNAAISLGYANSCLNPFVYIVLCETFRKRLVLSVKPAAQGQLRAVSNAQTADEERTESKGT

One assay addresses T1, hMCHR (MCH receptor) (Homo sapiens, UniProt Q99705).
T1 construct: (or internally produced); host or cells: CHO (Chinese hamster ovary) cells, membrane preparation
As to the kind of experiment: MCH Assay PCOP Protocol ([125I]-MCH SPA binding to hMCHR-CHO membranes).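 As to Activity (Ki range): A 0.4–50 nM B 51–500 nM C 501–2500 nM.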 Particulars: [125I]-MCH 0.5 nM, hMCHR-CHO membranes; read-out: Activity (ranges of Ki values). In outline: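 SPA binding with 10 μg hMCHR-CHO membranes and WGA-SPA beads in 25 mM HEPES pH 7.4, 10 mM NaCl, 10 mM MgCl2, 5 mM MnCl2, 0.1% BSA.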
On to `CN(C)CCCNCCC(CNC(=O)Nc1cc(Cl)cc(Cl)c1)c1cccc(-c2ccc(F)c(Cl)c2)c1` (stereo not drawn) [Example 170], for which the Ki was 501 to 2500 nM.

Take `CN(C)CCC(CNS(=O)(=O)c1cc(Cl)cc(Cl)c1)c1ccc(-c2cccc(C#N)c2)cc1` (racemic) [Example 25, (R,S)-3,5-Dichloro-N-[2-(3′-cyano-biphenyl-4-yl)-4-dimethylaminobutyl]-benzenesulfonamide]: the Ki lay in the range of 501 to 2500 nM.

For `Cc1ccc(C(CCN2CCC(NC(=O)c3cccs3)CC2)CNC(=O)Nc2cc(Cl)cc(Cl)c2)cc1` (stereo not drawn) [Example 198], the Ki fell in the range of 51 to 500 nM.

In the case of `CCOC(=O)N1CCC(NCCC(CNC(=O)Nc2cccc(C(F)(F)F)c2)c2ccc(Cl)cc2)CC1` (stereo not drawn) [Example 128], the Ki was 51 to 500 nM.

Regarding `CCNC(=O)N1CCC(NCCC(CNC(=O)Nc2cc(Cl)cc(Cl)c2)c2ccc(Cl)c(Cl)c2)C1` (stereo not drawn) [Example 182], the Ki is 51 to 500 nM.

For the compound `Cc1ccc(C(CCNC2CCCC2)CNC(=O)Nc2cc(C(F)(F)F)cc(C(F)(F)F)c2)cc1C` (stereo not drawn) [Example 109], the Ki lay in the range of 51 to 500 nM.

As for `C[N+](C)([O-])CCC(CNC(=O)Nc1cc(Cl)cc(Cl)c1)c1ccc(-c2ccc[n+]([O-])c2)cc1` (stereo not drawn) [Example 40], the Ki lay within 501 to 2500 nM.

In the case of `N#Cc1cccc(-c2ccc(C(CCNC3CC3)CNC(=O)Nc3cccc(F)c3)cc2)c1` (stereo not drawn) [Example 54], the Ki was 0.4 to 50 nM.

On to `O=C(NCC(CCNC1CCCC1)c1ccc(-c2ccc[n+]([O-])c2)cc1)Nc1cc(Cl)cc(Cl)c1` (stereo not drawn) [Example 94], for which the Ki lay within 0.4 to 50 nM.

As for `N#Cc1cccc(-c2ccc(C(CCNC3CC3)CNC(=O)Nc3ccc(F)c(F)c3)cc2)c1` (stereo not drawn) [Example 53], the Ki lay in the range of 0.4 to 50 nM.

In the case of `O=C(NCC(CCNC1CCCC1)c1ccc(Cl)c(Cl)c1)Nc1ccc(F)c(Cl)c1` (stereo not drawn) [Example 134], the Ki was in the range of 51 to 500 nM.

With `COc1cc(CNCCC(CNC(=O)Nc2ccc(F)c([N+](=O)[O-])c2)c2ccc(Cl)c(Cl)c2)cc(OC)c1OC` (stereo not drawn) [Example 125], the Ki is 51 to 500 nM.

As for `CS(=O)(=O)NC1CCN(CCC(CNC(=O)Nc2cc(Cl)cc(Cl)c2)c2ccc(Cl)c(Cl)c2)C1` (stereo not drawn) [Example 211], the Ki lay within 501 to 2500 nM.

`O=C(NCC(CCNC1CCC1)c1ccc(Cl)c(Cl)c1)Nc1ccc(F)c([N+](=O)[O-])c1` (racemic) [Example 22]: the Ki lay in the range of 501 to 2500 nM.

`N#Cc1cccc(-c2ccc(C(CCNC3CC3)CNC(=O)Nc3ccc(F)c(Cl)c3)cc2)c1` (stereo not drawn) [Example 56]: the Ki was in the range of 0.4 to 50 nM.

`CN(C)CCCNCCC(CNC(=O)Nc1cc(Cl)cc(Cl)c1)c1cccc(-c2ccc(C(F)(F)F)cc2)c1` (stereo not drawn) [Example 150]: the Ki lay in the range of 51 to 500 nM.

With `CN(C)CCC(CNC(=O)c1cc(F)cc(F)c1)c1ccc(-c2cccc(C#N)c2)cc1` (stereo not drawn) [Example 66], the Ki was 0.4 to 50 nM.

Take `CN(C)CCCNCCC(CNC(=O)Nc1cc(Cl)cc(Cl)c1)c1cccc(-c2cc(C(F)(F)F)cc(C(F)(F)F)c2)c1` (stereo not drawn) [Example 175]: the inhibition constant (Ki) lay within 501 to 2500 nM.

Regarding `COCC(=O)NC1CCN(CCC(CNC(=O)Nc2cc(Cl)cc(Cl)c2)c2ccc(C)cc2)C1` (stereo not drawn) [Example 208], the Ki lay within 501 to 2500 nM.

As to `COc1cscc1C(=O)NC1CCN(CCC(CNC(=O)Nc2cc(Cl)cc(Cl)c2)c2ccc(C)cc2)CC1` (stereo not drawn) [Example 203], the Ki is 501 to 2500 nM.

Consider `CC(=O)NC1CCN(CCC(CNC(=O)Nc2cc(Cl)cc(Cl)c2)c2ccc(Cl)cc2)C1` (stereo not drawn) [Example 186], for which the Ki was 51 to 500 nM.

`Cc1ccc(C(CCNC2CCNC2)CNC(=O)Nc2ccc(Cl)c(Cl)c2)cc1` (stereo not drawn) [Example 145]: the Ki lay in the range of 501 to 2500 nM.

Regarding `O=C(NCC(CCNC1CCCC1)c1cccc(-c2ccccc2Cl)c1)Nc1cc(Cl)cc(Cl)c1` (stereo not drawn) [Example 166], the Ki is 501 to 2500 nM.

Consider `CCNC(=O)N1CCC(NCCC(CNC(=O)Nc2cc(Cl)cc(Cl)c2)c2ccc(C)cc2)C1` (stereo not drawn) [Example 180], for which the Ki was 51 to 500 nM.

As to `O=C(NCC(CCNC1CCCC1)c1cccs1)Nc1ccc(Cl)c([N+](=O)[O-])c1` (stereo not drawn) [Example 110], the Ki was 51 to 500 nM.

Staying with this assay, now noted: [125I]-MCH SPA binding, hMCHR-CHO membranes; Ki class ranges; read-out: Activity (range of Ki).
Regarding `O=C(NCC(CCN1CCCCC1)c1ccc(Cl)c(Cl)c1)Nc1cc(C(F)(F)F)cc(C(F)(F)F)c1` (stereo not drawn) [Example 444], the Ki lay in the range of 51 to 500 nM.

Take `O=C(NCc1cc(C(F)(F)F)cc(C(F)(F)F)c1)C(CCN1CCC(N2CCCCC2)CC1)c1ccc(Cl)c(Cl)c1` (stereo not drawn) [Example 457]: the Ki lay in the range of 501 to 2500 nM.

The same assay, now with this note: [125I]-MCH binding to hMCHR-CHO membranes; class symbols for ranges of Ki; read-out: Activity (Ki range).
Regarding `O=C(NCC(CCN1CCNCC1)c1ccc(Cl)c(Cl)c1)Nc1cccc(C(F)(F)F)c1` (stereo not drawn) [Example 309], the Ki lay within 501 to 2500 nM.

`O=C(NCC(CCNC1CCCC1)c1ccc(-c2cc(Cl)cc(Cl)c2)cc1)Nc1cc(Cl)cc(Cl)c1` (stereo not drawn) [Example 236]: the Ki was in the range of 51 to 500 nM.

For `CCOC(=O)N1CCC(NCCC(CNC(=O)Nc2cc(Cl)cc(Cl)c2)c2ccc(Cl)c(Cl)c2)CC1` (stereo not drawn) [Example 277], the Ki fell in the range of 51 to 500 nM.

For the compound `O=C(NCC(CCN1CCCC1)c1ccc(Cl)c(Cl)c1)Nc1ccc(Cl)c(Cl)c1` (stereo not drawn) [Example 287], the Ki was 51 to 500 nM.

On to `O=S(=O)(NCC(CCNCCc1c[nH]c2ccccc12)c1ccc(Cl)cc1)c1ccc(Cl)c(Cl)c1` (stereo not drawn) [Example 342], for which the Ki lay within 501 to 2500 nM.

As for `COc1ccc(C(CCN2CCCC2)CNC(=O)Nc2cc(C(F)(F)F)cc(C(F)(F)F)c2)cc1` (stereo not drawn) [Example 335], the Ki lay in the range of 501 to 2500 nM.

Take `Cc1ccc(C(CCNC2CCC2)CNC(=O)Nc2cc(Cl)cc(Cl)c2)cc1` (stereo not drawn) [Example 272]: the Ki was in the range of 51 to 500 nM.

With `CN(C)CCCNCCC(CNC(=O)Nc1cc(Cl)cc(Cl)c1)c1ccc(-c2ccc(O)cc2)cc1` (stereo not drawn) [Example 251], the Ki lay within 51 to 500 nM.

`CN(C)CCCNCCC(CNC(=O)Nc1cc(Cl)cc(Cl)c1)c1ccc(-c2ccc(F)cc2)cc1` (stereo not drawn) [Example 237]: the Ki was 51 to 500 nM.

For the compound `O=C(NCc1cc(C(F)(F)F)cc(C(F)(F)F)c1)C(CCN1CCCC(CO)C1)c1ccc(Cl)c(Cl)c1` (stereo not drawn) [Example 387], the inhibitory constant (Ki) fell in the range of 501 to 2500 nM.

On to `Cc1ccc(-c2ccc(C(CCNC3CCCC3)CNC(=O)Nc3cc(Cl)cc(Cl)c3)cc2)cc1` (stereo not drawn) [Example 249], for which the Ki was 51 to 500 nM.

In the case of `CCOC(=O)N1CCC(NCCC(CNC(=O)Nc2cccc(C(F)(F)F)c2)c2ccc(Cl)c(Cl)c2)CC1` (stereo not drawn) [Example 281], the Ki is 51 to 500 nM.

For the compound `O=C(NCC(CCNC1CCCCC1)c1ccc(Cl)cc1)Nc1cc(Cl)cc(Cl)c1` (stereo not drawn) [Example 266], the inhibitory constant (Ki) lay in the range of 51 to 500 nM.

`O=C(NCC(CCNCCc1c[nH]c2ccccc12)c1ccc(Cl)c(Cl)c1)c1cc(C(F)(F)F)cc(C(F)(F)F)c1` (stereo not drawn) [Example 400]: the Ki was in the range of 501 to 2500 nM.

Take `CN(C)CCNCCC(CNC(=O)Nc1cc(C(F)(F)F)cc(C(F)(F)F)c1)c1ccc(Cl)c(Cl)c1` (stereo not drawn) [Example 332]: the Ki was in the range of 51 to 500 nM.

As to `O=C(NCc1cc(C(F)(F)F)cc(C(F)(F)F)c1)C(CCN1CCCCC1CO)c1ccc(Cl)c(Cl)c1` (stereo not drawn) [Example 383], the Ki lay within 501 to 2500 nM.

Turning to `O=C(NCc1cc(C(F)(F)F)cc(C(F)(F)F)c1)C(CCNCCN1CCCC1)c1ccc(Cl)c(Cl)c1` (stereo not drawn) [Example 380], the Ki lay within 501 to 2500 nM.

For the compound `O=C(NCC(CCN1CCC(N2CCCCC2)CC1)c1ccc(F)c(F)c1)Nc1ccc(Cl)c(Cl)c1` (stereo not drawn) [Example 369], the Ki was in the range of 501 to 2500 nM.

Regarding `Cn1cnc(CCNCCC(CNC(=O)Nc2ccc(Cl)c(Cl)c2)c2ccc(Cl)c(Cl)c2)c1` (stereo not drawn) [Example 284], the Ki was 51 to 500 nM.

Consider `Cc1ccc(C(CCNC2CCCCC2)CNC(=O)Nc2cc(Cl)cc(Cl)c2)cc1` (stereo not drawn) [Example 268], for which the Ki lay in the range of 51 to 500 nM.

Regarding `O=C(NCC(CCNCCc1c[nH]c2ccccc12)c1cccc(Cl)c1)Nc1cc(C(F)(F)F)cc(C(F)(F)F)c1` (stereo not drawn) [Example 333], the Ki was 51 to 500 nM.
